Results: patent US7973061B2, “Anaplastic lymphoma kinase modulators and methods of use” (Exelixis, Inc., priority 2004, dated 2011)
pIC50: −log10 of the molar value.

biological target: T1, ALK (baculovirus expressed human ALK kinase domain F1098-K1410) (Homo sapiens, UniProt Q9UM73); test: biochemical; settings: 1 μM ATP, 4 μM poly-AEKY, 12 nM ALK, 2 hours at ambient temperature; read-out: ALK IC50
T1 construct: human ALK kinase domain F1098-K1410; made in house
Description: Kinase activity and compound inhibition are investigated using one or more of the three assay formats described below. The ATP concentrations for each assay are selected to be close to the Michaelis-Menten constant (KM) for each individual kinase. Dose-response experiments are performed at 10 different inhibitor concentrations in a 384-well plate format. […] Y=Min+(Max−Min)/(1+(X/IC50)^H) Equation (2) Luciferase-Coupled Chemiluminescent Kinase Assay
ALK biochemical activity was assessed using a Luciferase-Coupled Chemiluminescent Kinase assay (LCCA) format in which kinase activity was measured as the percent ATP remaining following the kinase reaction. ATP remaining after the kinase reaction was detected by luciferase-luciferin-coupled chemiluminescence. […] The mixture was incubated at ambient temperature for 2 hours after which 20 μL luciferase-luciferin mix was added and the chemiluminescent signal read using a Wallac Victor^2 reader. […] Consumption of ATP by ALK can be quantified and utilized as a measure of inhibition of ALK activity by compounds described herein. By employing serial dilutions of compounds to be tested, the ability of test compounds to inhibit ALK activity can be determined.

T1 sequence (Q9UM73 1098-1410): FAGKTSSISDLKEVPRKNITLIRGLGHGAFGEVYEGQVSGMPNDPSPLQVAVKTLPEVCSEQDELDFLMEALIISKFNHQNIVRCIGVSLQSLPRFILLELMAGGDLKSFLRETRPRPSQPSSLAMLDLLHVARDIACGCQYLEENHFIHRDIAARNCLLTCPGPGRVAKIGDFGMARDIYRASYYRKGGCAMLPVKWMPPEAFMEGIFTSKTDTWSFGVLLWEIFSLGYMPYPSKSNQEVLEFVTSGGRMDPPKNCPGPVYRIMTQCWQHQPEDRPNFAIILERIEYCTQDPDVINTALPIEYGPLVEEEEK

SMILES	pIC50
CCOc1ccccc1CCNC(=O)c1csc(CNC(=O)COc2ccc(OC(F)(F)F)cc2)n1 [Entry 60, N-{2-[2-(ethyloxy)phenyl]ethyl}-2-({[({4-[(trifluoromethyl)oxy]phenyl}oxy)acetyl]amino}methyl)-1,3-thiazole-4-carboxamide]	6.30 to 7.30
CC(C)CNC(=O)c1csc(CNC(=O)COc2ccc(OC(F)(F)F)cc2)n1 [Entry 94, N-(2-methylpropyl)-2-({[({4-[(trifluoromethyl)oxy]phenyl}oxy)acetyl]amino}methyl)-1,3-thiazole-4-carboxamide]	6.30 to 7.30
COc1cccc(CCNC(=O)c2csc(CNC(=O)COc3ccc(OC(F)(F)F)cc3)n2)c1 [Entry 40, N-{2-[3-(methyloxy)phenyl]ethyl}-2-({[({4-[(trifluoromethyl)oxy]phenyl}oxy)acetyl]amino}methyl)-1,3-thiazole-4-carboxamide]	6.30 to 7.30
O=C(COc1ccc(OC(F)(F)F)cc1)NCc1nc(C(=O)N2CCc3c([nH]c4ccccc34)C2)cs1 [Entry 96, N-{[4-(1,3,4,9-tetrahydro-2H-beta-carbolin-2-ylcarbonyl)-1,3-thiazol-2-yl]methyl}-2-({4-[(trifluoromethyl)oxy]phenyl}oxy)acetamide]	6.30 to 7.30
O=C(COc1ccc(OC(F)(F)F)cc1)NCc1nc(C(=O)NCCc2cccs2)co1 [Entry 159, N-[2-(2-thienyl)ethyl]-2-({[({4-[(trifluoromethyl)oxy]phenyl}oxy)acetyl]amino}methyl)-1,3-oxazole-4-carboxamide]	6.30 to 7.30
C#CC1(NC(=O)c2csc(CNC(=O)COc3ccc(OC(F)(F)F)cc3)n2)CCCCC1 [Entry 180, N-(1-ethynylcyclohexyl)-2-({[({4-[(trifluoromethyl)oxy]phenyl}oxy)acetyl]amino}methyl)-1,3-thiazole-4-carboxamide]	6.30 to 7.30
CC(C)[C@H](C)NC(=O)c1csc(CNC(=O)COc2ccc(OC(F)(F)F)cc2)n1 [Entry 153, N-[(1S)-1,2-dimethylpropyl]-2-({[({4-[(trifluoromethyl)oxy]phenyl}oxy)acetyl]amino}methyl)-1,3-thiazole-4-carboxamide]	6.30 to 7.30
C[C@@H]1[C@@H](NC(=O)c2coc(CNC(=O)COc3ccc(OC(F)(F)F)cc3)n2)C[C@H]2C[C@@H]1C2(C)C [Entry 89, 2-({[({4-[(trifluoromethyl)oxy]phenyl}oxy)acetyl]amino}methyl)-N-[(1S,2S,3S,5R)-2,6,6-trimethylbicyclo[3.1.1]hept-3-yl]-1,3-oxazole-4-carboxamide]	6.30 to 7.30
O=C(NCCc1cccc(Cl)c1)c1csc(CNC(=O)c2cccnc2Oc2ccc(Cl)cc2)n1 [Entry 62, N-{[4-({[2-(3-chlorophenyl)ethyl]amino}carbonyl)-1,3-thiazol-2-yl]methyl}-2-[(4-chlorophenyl)oxy]pyridine-3-carboxamide]	6.30 to 7.30
CCOc1ccccc1CNC(=O)c1csc(CNC(=O)COc2ccc(OC(F)(F)F)cc2)n1 [Entry 58, N-{[2-(ethyloxy)phenyl]methyl}-2-({[({4-[(trifluoromethyl)oxy]phenyl}oxy)acetyl]amino}methyl)-1,3-thiazole-4-carboxamide]	6.30 to 7.30
COc1ccc(CNC(=O)c2csc(CNC(=O)COc3ccc(OC(F)(F)F)cc3)n2)c(OC)c1 [Entry 120, N-{[2,4-bis(methyloxy)phenyl]methyl}-2-({[({4-[(trifluoromethyl)oxy]phenyl}oxy)acetyl]amino}methyl)-1,3-thiazole-4-carboxamide]	6.30 to 7.30
COc1ccccc1CNC(=O)c1csc(CNC(=O)COc2ccc(OC(F)(F)F)cc2)n1 [Entry 17, N-{[2-(methyloxy)phenyl]methyl}-2-({[({4-[(trifluoromethyl)oxy]phenyl}oxy)acetyl]amino}methyl)-1,3-thiazole-4-carboxamide]	> 7.30
CC(NC(=O)c1csc(CNC(=O)COc2ccc(OC(F)(F)F)cc2)n1)c1ccccc1 (stereo not drawn) [Entry 108, N-(1-phenylethyl)-2-({[({4-[(trifluoromethyl)oxy]phenyl}oxy)acetyl]amino}methyl)-1,3-thiazole-4-carboxamide]	6.30 to 7.30
CSCCNC(=O)c1csc(CNC(=O)COc2ccc(OC(F)(F)F)cc2)n1 [Entry 195, N-[2-(methylthio)ethyl]-2-({[({4-[(trifluoromethyl)oxy]phenyl}oxy)acetyl]amino}methyl)-1,3-thiazole-4-carboxamide]	6.30 to 7.30
O=C(COc1ccc(OC(F)(F)F)cc1)NCc1nc(C(=O)NCc2c(F)cccc2F)cs1 [Entry 115, N-[(2,6-difluorophenyl)methyl]-2-({[({4-[(trifluoromethyl)oxy]phenyl}oxy)acetyl]amino}methyl)-1,3-thiazole-4-carboxamide]	6.30 to 7.30
O=C(COc1ccc(OC(F)(F)F)cc1)NCc1nc(C(=O)NCc2ccc(F)c(F)c2)cs1 [Entry 185, N-[(3,4-difluorophenyl)methyl]-2-({[({4-[(trifluoromethyl)oxy]phenyl}oxy)acetyl]amino}methyl)-1,3-thiazole-4-carboxamide]	6.30 to 7.30
CC(NC(=O)c1coc(CNC(=O)COc2ccc(OC(F)(F)F)cc2)n1)c1cccc2ccccc12 (stereo not drawn) [Entry 99, N-(1-naphthalen-1-ylethyl)-2-({[({4-[(trifluoromethyl)oxy]phenyl}oxy)acetyl]amino}methyl)-1,3-oxazole-4-carboxamide]	6.30 to 7.30
Cc1cc(Cl)cc(Cl)c1CNC(=O)c1csc(CNC(=O)COc2ccc(OC(F)(F)F)cc2)n1 [Entry 166, N-[(2,4-dichloro-6-methylphenyl)methyl]-2-({[({4-[(trifluoromethyl)oxy]phenyl}oxy)acetyl]amino}methyl)-1,3-thiazole-4-carboxamide]	6.30 to 7.30
O=C(COc1ccc(OC(F)(F)F)cc1)NCc1nc(C(=O)NCc2cccc(Cl)c2)cs1 [Entry 119, N-[(3-chlorophenyl)methyl]-2-({[({4-[(trifluoromethyl)oxy]phenyl}oxy)acetyl]amino}methyl)-1,3-thiazole-4-carboxamide]	6.30 to 7.30

The remaining lines, values ahead:

pIC50	SMILES
5.70 to 6.30	O=C(COc1ccc(OC(F)(F)F)cc1)NCc1nc(C(=O)NCCc2ccccc2)co1 [Entry 242, N-(2-phenylethyl)-2-({[({4-[(trifluoromethyl)oxy]phenyl}oxy)acetyl]amino}methyl)-1,3-oxazole-4-carboxamide]
5.70 to 6.30	O=C(COc1ccc(OC(F)(F)F)cc1)NCc1nc(C(=O)NCc2ccc(F)cc2)co1 [Entry 292, N-[(4-fluorophenyl)methyl]-2-({[({4-[(trifluoromethyl)oxy]phenyl}oxy)acetyl]amino}methyl)-1,3-oxazole-4-carboxamide]
5.70 to 6.30	COc1ccccc1CNC(=O)c1csc(CNC(=O)Cc2ccc3ccccc3c2)n1 [Entry 229, N-{[2-(methyloxy)phenyl]methyl}-2-{[(naphthalen-2-ylacetyl)amino]methyl}-1,3-thiazole-4-carboxamide]
5.70 to 6.30	O=C(COc1ccc(OC(F)(F)F)cc1)NCc1nc(C(=O)NCc2ccccc2Cl)co1 [Entry 261, N-[(2-chlorophenyl)methyl]-2-({[({4-[(trifluoromethyl)oxy]phenyl}oxy)acetyl]amino}methyl)-1,3-oxazole-4-carboxamide]
5.70 to 6.30	O=C(COc1ccc(OC(F)(F)F)cc1)NCc1nc(C(=O)NCc2ccc(Cl)cc2)cs1 [Entry 227, N-[(4-chlorophenyl)methyl]-2-({[({4-[(trifluoromethyl)oxy]phenyl}oxy)acetyl]amino}methyl)-1,3-thiazole-4-carboxamide]
5.70 to 6.30	O=C(COc1ccc(OC(F)(F)F)cc1)NCc1nc(C(=O)NCC(F)(F)F)cs1 [Entry 280, N-(2,2,2-trifluoroethyl)-2-({[({4-[(trifluoromethyl)oxy]phenyl}oxy)acetyl]amino}methyl)-1,3-thiazole-4-carboxamide]
< 5.70	CCN(CC)C1CCN(C(=O)c2csc(CNC(=O)COc3ccc(OC(F)(F)F)cc3)n2)C1 (stereo not drawn) [Entry 311, N-[(4-{[3-(diethylamino)pyrrolidin-1-yl]carbonyl}-1,3-thiazol-2-yl)methyl]-2-({4-[(trifluoromethyl)oxy]phenyl}oxy)acetamide]
6.30 to 7.30	O=C(C/C=C/c1ccccc1)NCc1nc(C(=O)NCCc2cccc(Cl)c2)cs1 [Entry 208, N-[2-(3-chlorophenyl)ethyl]-2-({[(3E)-4-phenylbut-3-enoyl]amino}methyl)-1,3-thiazole-4-carboxamide]
5.70 to 6.30	CCOC(=O)N1CCC(NC(=O)c2csc(CNC(=O)COc3ccc(OC(F)(F)F)cc3)n2)CC1 [Entry 283, ethyl 4-({[2-({[({4-[(trifluoromethyl)oxy]phenyl}oxy)acetyl]amino}methyl)-1,3-thiazol-4-yl]carbonyl}amino)piperidine-1-carboxylate]
5.70 to 6.30	O=C(COc1ccc(OC(F)(F)F)cc1)NCc1nc(C(=O)N2CCN(c3ccccn3)CC2)cs1 [Entry 279, N-({4-[(4-pyridin-2-ylpiperazin-1-yl)carbonyl]-1,3-thiazol-2-yl}methyl)-2-({4-[(trifluoromethyl)oxy]phenyl}oxy)acetamide]
6.30 to 7.30	CCC(C)CNC(=O)c1csc(CNC(=O)COc2ccc(OC(F)(F)F)cc2)n1 (stereo not drawn) [Entry 210, N-(2-methylbutyl)-2-({[({4-[(trifluoromethyl)oxy]phenyl}oxy)acetyl]amino}methyl)-1,3-thiazole-4-carboxamide]
